No end group written: not given here.
How the values were obtained:
MDRAB (329-53) [1] = details: for FICI: fractional inhibitory concentration index, FICA + FICB / Interpretation of FICI: antibiotic in combination with hirunipin 2; for MICA: MIC of antibiotic alone: checkerboard, MDRAB, 1×10^6 CFU/mL; for FICA: fractional inhibitory concentration of antibiotic ([A] / MICA) / [A]: MIC of antibiotic in combination: in combination with hirunipin 2
Description: Synergy testing by checkerboard assay: Briefly, each 96-well microtiter plate was inoculated with two-fold serial dilutions of two antibiotics, ranging from 1/8 MIC to 2 MIC, such that one antibiotic was inoculated in the columns and the other in the rows. Then, MDRAB (329-53) cells were inoculated at a concentration of 1× 10^6 CFU/mL. The plates were incubated overnight under static conditions and observed visually.

[2] = tested on: Escherichia coli [KCTC 1682]; format: cell-based; details: KCTC 1682, 24 h
Description: (§1) The MICs of the peptides were measured by the Clinical and Laboratory Standards Institute (CLSI) broth microdilution method, as outlined in a previous study.^[ [26], [27] ^]
(§2) Minimal Inhibitory Concentrations (MICs): Bacteria were grown to mid-logarithmic phase and diluted in Mueller-Hinton broth (MHB) (Difco). The bacterial suspension (1×10^6 CFU/well) was added to a 96-well microtiter plate along with a two-fold serial dilution of samples. The plate was incubated at 37 °C for 24 hours and the bacterial growth inhibition was assessed by measuring the optical density using an ELISA plate reader. The minimum inhibitory concentration (MIC) was defined as the lowest concentration of samples that prevented visible bacterial growth.

[3] = tested on: Pseudomonas aeruginosa [KCTC 1637]; format: cell-based; details: KCTC 1637, 24 h
Description: as §1, §2

[4] = tested on: Staphylococcus aureus [KCTC1621]; format: cell-based; details: KCTC1621, 24 h
Description: as §1, §2

[5] = tested on: Staphylococcus epidermidis [KCTC 1917]; format: cell-based; details: KCTC 1917, 24 h
Description: as §1, §2

E. coli (KCTC 1682) = format: cell-based, Escherichia coli; details: KCTC 1682, 24 h
Description: as §2, with “The salt sensitivity of the peptides was also analyzed. […] The MIC values in the physiological environment were determined as described above, and data were acquired from three independent assays performed in triplicate. Minimal” for “Minimal”

S. aureus (KCTC1621) = format: cell-based, Staphylococcus aureus; details: KCTC1621, 24 h
Description: as §2, with “The salt sensitivity of the peptides was also analyzed. […] The MIC values in the physiological environment were determined as described above, and data were acquired from three independent assays performed in triplicate. Minimal” for “Minimal”

MDRKP (328-83) = format: cell-based, Klebsiella pneumonia; details: 24 h
Description: as §1
(§3) Microbial Strains and Cell Lines: Multiple bacterial strains were used in this study. Standard stains included Escherichia coli (KCTC 1682), Pseudomonas aeruginosa (KCTC 1637), Staphylococcus aureus (KCTC1621) and Staphylococcus epidermidis (KCTC 1917) supplied from the Korean Collection for Type Cultures (KCTC) of the Korea Research Institute of Bioscience and Biotechnology (KRIBB). Clinically isolated multidrug-resistant bacteria included multidrug-resistant Klebsiella pneumonia (MDRKP 328-83), multidrug-resistant Acinetobacter baumannii (MDRAB 329-53), multidrug-resistant Pseudomonas aeruginosa (MDRPA 314-69), multidrug-resistant Enterobacter cloacae (MDRE 328-84) and multidrug-resistant Escherichia coli (MDREC 329-66) provided from Hospital of Chosun University, Korea. All bacterial strains were stored in 20% glycerol at −80 °C. For the subsequent experiments, the bacteria were recovered and cultured in the corresponding enrichment broth at 37 °C. The mouse macrophage RAW264.7, mouse fibroblast NIH-3T3 and human keratinocyte HaCat cells were cultured in Dulbecco’s modified Eagle’s medium (DMEM), supplemented with 10% (v/v) of fetal bovine serum (Sigma-Aldrich), 100 U/mL of penicillin and 0.1 mg/mL of streptomycin, at 37 °C in the presence of 5% CO2
as §2

MDRAB (329-53) [6] = format: cell-based, Acinetobacter baumannii; details: 24 h
Description: as §1, §3, §2

MDRPA (314-69) = format: cell-based, Pseudomonas aeruginosa; details: 24 h
Description: as §1, §3, §2

MDRE (328-84) = format: cell-based, Enterobacter cloacae; details: 24 h
Description: as §1, §3, §2

MDREC (329-66) = format: cell-based, Escherichia coli; details: 24 h
Description: as §1, §3, §2

| Molecule | Interpretation of FICI (MDRAB (329-53) [1]) | MICA: MIC of antibiotic alone (MDRAB (329-53) [1]) | FICA: fractional inhibitory concentration of antibiotic ([A] / MICA) (MDRAB (329-53) [1]) | [A]: MIC of antibiotic in combination (MDRAB (329-53) [1]) | Minimum inhibitory concentration (MIC), Escherichia coli [KCTC 1682] [2] | Minimum inhibitory concentration (MIC), Pseudomonas aeruginosa [KCTC 1637] [3] | Minimum inhibitory concentration (MIC), Staphylococcus aureus [KCTC1621] [4] | Minimum inhibitory concentration (MIC), Staphylococcus epidermidis [KCTC 1917] [5] | MIC against E. coli (KCTC 1682), 4 µM FeCl3 (E. coli (KCTC 1682)) | MIC against E. coli (KCTC 1682), 6 µM NH4Cl (E. coli (KCTC 1682)) | MIC against E. coli (KCTC 1682), 1 mM MgCl2 (E. coli (KCTC 1682)) | MIC against E. coli (KCTC 1682), 2.5 mM CaCl2 (E. coli (KCTC 1682)) | MIC against E. coli (KCTC 1682), 4.5 mM KCl (E. coli (KCTC 1682)) | MIC against E. coli (KCTC 1682), 150 mM NaCl (E. coli (KCTC 1682)) | MIC against E. coli (KCTC 1682), 25% Human serum (E. coli (KCTC 1682)) | MIC against E. coli (KCTC 1682), Control (E. coli (KCTC 1682)) | MIC against S. aureus (KCTC1621), 4 µM FeCl3 (S. aureus (KCTC1621)) | MIC against S. aureus (KCTC1621), 6 µM NH4Cl (S. aureus (KCTC1621)) | MIC against S. aureus (KCTC1621), 1 mM MgCl2 (S. aureus (KCTC1621)) | MIC against S. aureus (KCTC1621), 2.5 mM CaCl2 (S. aureus (KCTC1621)) | further results |
| --- | --- | --- | --- | --- | --- | --- | --- | --- | --- | --- | --- | --- | --- | --- | --- | --- | --- | --- | --- | --- | --- |
| O=C(N[C@H](CO)[C@H](O)c1ccc([N+](=O)[O-])cc1)C(Cl)Cl [CHL, Chloramphenicol] | synergy (FICI ≤ 0.5 was interpreted as synergy) | 1024 µg/mL | 0.125 | 128 µg/mL |  |  |  |  |  |  |  |  |  |  |  |  |  |  |  |  | FICI: fractional inhibitory concentration index, FICA + FICB (MDRAB (329-53) [1]): 0.1875 |
| O=C(O)c1cn(C2CC2)c2cc(N3CCNCC3)c(F)cc2c1=O [CIP, Ciprofloxacin] | synergy (FICI ≤ 0.5 was interpreted as synergy) | 128 µg/mL | 0.25 | 32 µg/mL |  |  |  |  |  |  |  |  |  |  |  |  |  |  |  |  |  |
| CO[C@H]1/C=C/O[C@@]2(C)Oc3c(C)c(O)c4c(O)c(c(/C=N/N5CCN(C)CC5)c(O)c4c3C2=O)NC(=O)/C(C)=C\C=C\[C@H](C)[C@H](O)[C@@H](C)[C@@H](O)[C@@H](C)[C@H](OC(C)=O)[C@@H]1C [RIF, Rifampicin] | synergy (FICI ≤ 0.5 was interpreted as synergy) | 16 µg/mL | 0.0625 | 1 µg/mL |  |  |  |  |  |  |  |  |  |  |  |  |  |  |  |  | FICI: fractional inhibitory concentration index, FICA + FICB (MDRAB (329-53) [1]): 0.3125 |
| LLKKLLRSLIKPAIMKIINTPPQEKLQK-NH2 [Hirunipin 1] |  |  |  |  | 64 µg/mL | 32 µg/mL | 64 µg/mL | 32 µg/mL | 128 µg/mL | 128 µg/mL | 256 µg/mL | 256 µg/mL | 256 µg/mL | 256 µg/mL | 128 µg/mL | 64 µg/mL | 64 µg/mL | 256 µg/mL | 256 µg/mL | 256 µg/mL | MIC against S. aureus (KCTC1621), 4.5 mM KCl (S. aureus (KCTC1621)): 256 µg/mL; MIC against S. aureus (KCTC1621), 150 mM NaCl (S. aureus (KCTC1621)): 256 µg/mL; MIC against S. aureus (KCTC1621), 25% Human serum (S. aureus (KCTC1621)): 256 µg/mL; MIC against S. aureus (KCTC1621), Control (S. aureus (KCTC1621)): 64 µg/mL; Minimum inhibitory concentrations, MDRKP (328-83) (MDRKP (328-83)): >128 µg/mL; Minimum inhibitory concentrations, MDRAB (329-53) (MDRAB (329-53) [6]): >128 µg/mL; Minimum inhibitory concentrations, MDRPA (314-69) (MDRPA (314-69)): 64 µg/mL; Minimum inhibitory concentrations, MDRE (328-84) (MDRE (328-84)): >128 µg/mL; Minimum inhibitory concentrations, MDREC (329-66) (MDREC (329-66)): 64 µg/mL |
| MKSINLKKVVKSIIKKILNSSF-NH2 [Hirunipin 2] |  |  |  |  | 32 µg/mL | 32 µg/mL | 32 µg/mL | 32 µg/mL | 8 µg/mL | 8 µg/mL | 32 µg/mL | 8 µg/mL | 8 µg/mL | 16 µg/mL | 64 µg/mL | 32 µg/mL | 32 µg/mL | 16 µg/mL | 32 µg/mL | 32 µg/mL | MIC against S. aureus (KCTC1621), 4.5 mM KCl (S. aureus (KCTC1621)): 32 µg/mL; MIC against S. aureus (KCTC1621), 150 mM NaCl (S. aureus (KCTC1621)): 32 µg/mL; MIC against S. aureus (KCTC1621), 25% Human serum (S. aureus (KCTC1621)): 64 µg/mL; MIC against S. aureus (KCTC1621), Control (S. aureus (KCTC1621)): 32 µg/mL; Minimum inhibitory concentrations, MDRKP (328-83) (MDRKP (328-83)): 128 µg/mL; Minimum inhibitory concentrations, MDRAB (329-53) (MDRAB (329-53) [6]): 64 µg/mL; Minimum inhibitory concentrations, MDRPA (314-69) (MDRPA (314-69)): 16 µg/mL; Minimum inhibitory concentrations, MDRE (328-84) (MDRE (328-84)): 32 µg/mL; Minimum inhibitory concentrations, MDREC (329-66) (MDREC (329-66)): 16 µg/mL; MICB: MIC of hirunipin 2 alone (MDRAB (329-53) [1]): 64 µg/mL |
| YFKIIKFLPKALKCLLPQKHKEHGNL-NH2 [Hirunipin 3] |  |  |  |  | 128 µg/mL | 128 µg/mL | 128 µg/mL | 64 µg/mL | 32 µg/mL | 64 µg/mL | 256 µg/mL | 32 µg/mL | 128 µg/mL | 128 µg/mL | 256 µg/mL | 128 µg/mL | >256 µg/mL | 256 µg/mL | 256 µg/mL | 256 µg/mL | MIC against S. aureus (KCTC1621), 4.5 mM KCl (S. aureus (KCTC1621)): 256 µg/mL; MIC against S. aureus (KCTC1621), 150 mM NaCl (S. aureus (KCTC1621)): 256 µg/mL; MIC against S. aureus (KCTC1621), 25% Human serum (S. aureus (KCTC1621)): >256 µg/mL; MIC against S. aureus (KCTC1621), Control (S. aureus (KCTC1621)): 128 µg/mL; Minimum inhibitory concentrations, MDRKP (328-83) (MDRKP (328-83)): >128 µg/mL; Minimum inhibitory concentrations, MDRAB (329-53) (MDRAB (329-53) [6]): >128 µg/mL; Minimum inhibitory concentrations, MDRPA (314-69) (MDRPA (314-69)): >128 µg/mL; Minimum inhibitory concentrations, MDRE (328-84) (MDRE (328-84)): >128 µg/mL; Minimum inhibitory concentrations, MDREC (329-66) (MDREC (329-66)): 128 µg/mL |
